Consider 18 molecules from PubChem BioAssay AID248 (DTP/NCI, 2004).

Values joined by “and” are separate entries in the source; they are usually repeats but may differ in a detail not shown here. Equal values may be shown once. Toxic doses and inconclusive results are not listed.

The subject of the test is L1210 leukemia ip in BDF1 mice, survival T/C. Put plainly: NCI In Vivo Anticancer Drug Screen. Data for tumor model L1210 Leukemia (intraperitoneal) in B6D2F1 (BDF1) mice. As to conditions: endpoint: mean survival time, higher = longer survival. The method, boiled down:
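Transplanted-tumor mice were given test agent; controls received vehicle only. Survival readings from the two groups were divided (treated over control).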

Setting [1] is: dose: 12.5 mg/kg/injection, schedule: Q01DX009 (ip), vehicle: Klucel (hydroxypropylcellulose) (HPC).
Where [2] appears, read: dose: 25.0 mg/kg/injection, schedule: Q01DX009 (ip), vehicle: Klucel (hydroxypropylcellulose) (HPC).
Setting [3] is: dose: 50.0 mg/kg/injection, schedule: Q01DX009 (ip), vehicle: Klucel (hydroxypropylcellulose) (HPC).
The mark [4] stands for this setting: dose: 100.0 mg/kg/injection, schedule: Q01DX001 (ip), vehicle: Klucel (hydroxypropylcellulose) (HPC).
[5] abbreviates: dose: 200.0 mg/kg/injection, schedule: Q01DX001 (ip), vehicle: Klucel (hydroxypropylcellulose) (HPC).
The mark [6] stands for this setting: dose: 100.0 mg/kg/injection, schedule: Q01DX009 (ip), vehicle: Klucel (hydroxypropylcellulose) (HPC).
Setting [7] is: dose: 100.0 mg/kg/injection, schedule: Q04DX003 (ip), vehicle: Klucel (hydroxypropylcellulose) (HPC).
Setting [8] is: dose: 400.0 mg/kg/injection, schedule: Q01DX001 (ip), vehicle: water.
The mark [9] stands for this setting: dose: 100.0 mg/kg/injection, schedule: Q01DX001 (ip), vehicle: saline.
Setting [10] is: dose: 200.0 mg/kg/injection, schedule: Q01DX001 (ip), vehicle: saline.
Where [11] appears, read: dose: 400.0 mg/kg/injection, schedule: Q01DX001 (ip), vehicle: saline.
Setting [12] is: dose: 100.0 mg/kg/injection, schedule: Q04DX003 (ip), vehicle: saline.
[13] abbreviates: dose: 200.0 mg/kg/injection, schedule: Q04DX003 (ip), vehicle: saline.
Setting [14] is: dose: 400.0 mg/kg/injection, schedule: Q04DX003 (ip), vehicle: saline.

On to `CCCOc1ccc(C2=NCC(C)S2)c(C)c1` (configuration not stated), for which the T/C runs as follows: under setting [1], 94 % of control; under setting [2], 91 % of control; under setting [3], 98 % of control and 90 % of control; (dose: 100.0 mg/kg/injection, schedule: Q01DX005 (ip), vehicle: Klucel (hydroxypropylcellulose) (HPC)) 101 % of control; (dose: 200.0 mg/kg/injection, schedule: Q01DX005 (ip), vehicle: Klucel (hydroxypropylcellulose) (HPC)) 89 % of control.

Consider `O=C1NC(=O)C(Nc2ccccc2)(c2ccccc2)N1` (configuration not stated), for which the T/C runs as follows: under setting [4], 90 % of control; under setting [5], 95 % of control.

Turning to `CC(C)CNC(=O)CCc1ccc(N(CCCl)CCCl)cc1`, the T/C is, setting by setting: under setting [3], 109 % of control; under setting [6], 117 % of control; under setting [7], 120 % of control; (dose: 200.0 mg/kg/injection, schedule: Q04DX003 (ip), vehicle: Klucel (hydroxypropylcellulose) (HPC)) 102 % of control; (dose: 400.0 mg/kg/injection, schedule: Q04DX003 (ip), vehicle: Klucel (hydroxypropylcellulose) (HPC)) 112 % of control.

Take `O=C(NO)c1ccc([N+](=O)[O-])cc1`: the T/C was 92 % of control under setting [6]; 101 % of control (dose: 180.0 mg/kg/injection, schedule: Q01DX015 (ip), vehicle: water); 103 % of control (dose: 200.0 mg/kg/injection, schedule: Q01DX009 (ip), vehicle: Klucel (hydroxypropylcellulose) (HPC)); 107 % of control and 117 % of control and 119 % of control (dose: 270.0 mg/kg/injection, schedule: Q01DX015 (ip), vehicle: water); 97 % of control under setting [8]; 109 % of control (dose: 400.0 mg/kg/injection, schedule: Q01DX009 (ip), vehicle: Klucel (hydroxypropylcellulose) (HPC)). Also, for the setting “dose: 600.0 mg/kg/injection, schedule: Q01DX001 (ip), vehicle: water”, the T/C was 97 % of control.

With `O=[N+]([O-])c1ccc(CS(=O)(=O)Cc2ccc([N+](=O)[O-])cc2)cc1`, the T/C runs as follows: (dose: 150.0 mg/kg/injection, schedule: Q01DX001 (ip), vehicle: carboxymethylcellulose (CMC)) 93 % of control; (dose: 300.0 mg/kg/injection, schedule: Q01DX001 (ip), vehicle: carboxymethylcellulose (CMC)) 89 % of control.

For `CC(C)(C)NC(=O)NN(c1ccccc1)C1CCS(=O)(=O)C1` (configuration not stated), the T/C (dose: 100.0 mg/kg/injection, schedule: Q04DX002 (ip), vehicle: saline) is 108 % of control; the T/C (dose: 200.0 mg/kg/injection, schedule: Q04DX002 (ip), vehicle: saline) is 97 % of control; the T/C (dose: 400.0 mg/kg/injection, schedule: Q04DX002 (ip), vehicle: saline) was 97 % of control.

Turning to `Cn1nnc(CCO)n1`, the T/C under setting [9] was 95 % of control, the T/C under setting [10] is 95 % of control and the T/C under setting [11] was 100 % of control.

Regarding `CC(C)=CCC1=C(O)C2=C(CCCC2)C(=O)C1=O`, the T/C by setting is: (dose: 100.0 mg/kg/injection, schedule: Q01DX001 (ip), vehicle: water) 102 % of control; (dose: 200.0 mg/kg/injection, schedule: Q01DX001 (ip), vehicle: water) 106 % of control; under setting [8], 93 % of control.

Regarding `Cc1ccc(C(SCC(N)C(=O)O)(c2ccccc2)c2ccc(C)cc2)cc1` (configuration not stated), the T/C is, setting by setting: (dose: 6.25 mg/kg/injection, schedule: Q01DX009 (ip), vehicle: other) 124 % of control; (dose: 12.5 mg/kg/injection, schedule: Q01DX009 (ip), vehicle: other) 152 % of control; (dose: 12.5 mg/kg/injection, schedule: Q01DX009 (ip), vehicle: saline) 156 % of control and 197 % of control; (dose: 25.0 mg/kg/injection, schedule: Q01DX009 (ip), vehicle: other) 164 % of control; (dose: 25.0 mg/kg/injection, schedule: Q01DX009 (ip), vehicle: saline) 179 % of control and 195 % of control; (dose: 50.0 mg/kg/injection, schedule: Q01DX009 (ip), vehicle: saline) 113 % of control and 88 % of control.

Regarding `OCC1OC([Se])C(O)C(O)C1O.[CH3][Sb][CH3]` (configuration not stated), the T/C reads like this: (dose: 3.13 mg/kg/injection, schedule: Q01DX009 (ip), vehicle: Klucel (hydroxypropylcellulose) (HPC)) 99 % of control; (dose: 6.25 mg/kg/injection, schedule: Q01DX009 (ip), vehicle: Klucel (hydroxypropylcellulose) (HPC)) 96 % of control and 98 % of control; under setting [1], 99 % of control and 104 % of control; under setting [2], 91 % of control.

For `CCOC(=O)c1cc([N+](=O)[O-])cc2c1-c1c(cc([N+](=O)[O-])cc1[N+](=O)[O-])C2=O`, the T/C was 98 % of control (dose: 12.5 mg/kg/injection, schedule: Q04DX003 (ip), vehicle: Klucel (hydroxypropylcellulose) (HPC)); 101 % of control (dose: 25.0 mg/kg/injection, schedule: Q04DX003 (ip), vehicle: Klucel (hydroxypropylcellulose) (HPC)); 103 % of control (dose: 50.0 mg/kg/injection, schedule: Q04DX003 (ip), vehicle: Klucel (hydroxypropylcellulose) (HPC)); 96 % of control under setting [7].

For `O=C(O)c1ccccc1SSc1ccccc1C(=O)O`, the T/C reads like this: (dose: 50.0 mg/kg/injection, schedule: Q01DX001 (ip), vehicle: carboxymethylcellulose (CMC)) 100 % of control; (dose: 100.0 mg/kg/injection, schedule: Q01DX001 (ip), vehicle: carboxymethylcellulose (CMC)) 100 % of control; (dose: 200.0 mg/kg/injection, schedule: Q01DX001 (ip), vehicle: carboxymethylcellulose (CMC)) 96 % of control; (dose: 400.0 mg/kg/injection, schedule: Q01DX001 (ip), vehicle: carboxymethylcellulose (CMC)) 103 % of control.

As for `COc1ccc(C)cc1NC(=S)NC(=O)c1cccc([N+](=O)[O-])c1`, the T/C is 93 % of control (dose: 100.0 mg/kg/injection, schedule: Q01DX001 (ip), vehicle: saline with Tween-80); 100 % of control and 89 % of control (dose: 100.0 mg/kg/injection, schedule: Q01DX009 (ip), vehicle: saline with Tween-80); 87 % of control (dose: 100.0 mg/kg/injection, schedule: Q04DX002 (ip), vehicle: saline with Tween-80); 101 % of control (dose: 100.0 mg/kg/injection, schedule: Q04DX003 (ip), vehicle: saline with Tween-80); 89 % of control (dose: 200.0 mg/kg/injection, schedule: Q01DX001 (ip), vehicle: saline with Tween-80); 96 % of control and 97 % of control (dose: 200.0 mg/kg/injection, schedule: Q01DX009 (ip), vehicle: saline with Tween-80). Besides, the T/C reads like this: (dose: 200.0 mg/kg/injection, schedule: Q04DX002 (ip), vehicle: saline with Tween-80) 97 % of control; (dose: 200.0 mg/kg/injection, schedule: Q04DX003 (ip), vehicle: saline with Tween-80) 93 % of control; (dose: 400.0 mg/kg/injection, schedule: Q01DX009 (ip), vehicle: saline with Tween-80) 92 % of control and 101 % of control; (dose: 400.0 mg/kg/injection, schedule: Q04DX002 (ip), vehicle: saline with Tween-80) 90 % of control; (dose: 400.0 mg/kg/injection, schedule: Q04DX003 (ip), vehicle: saline with Tween-80) 88 % of control.

On to `CCCCCCCCCCC1CCC2C(C1)CC1C3CCCCC3CC21` (configuration not stated), for which the T/C by setting is: under setting [9], 97 % of control; under setting [10], 97 % of control; under setting [11], 96 % of control.

As for `O=C(COc1ccc2ccccc2c1)Nc1ccc[n+](Cc2ccc(S(=O)(=O)F)cc2)c1`, the T/C is 106 % of control under setting [12], 90 % of control under setting [13] and 94 % of control under setting [14].

Turning to `CCC(Cl)COP(=O)(CC(Cl)CC)OC(C)P(=O)(OCC(Cl)CC)OCC(Cl)CC` (configuration not stated), the T/C reads like this: under setting [4], 101 % of control; under setting [5], 121 % of control; (dose: 400.0 mg/kg/injection, schedule: Q01DX001 (ip), vehicle: Klucel (hydroxypropylcellulose) (HPC)) 97 % of control.

As to `CCOC(=O)c1c[nH]c2ccc(OC)cc2c1=O`, the T/C was 96 % of control (dose: 100.0 mg/kg/injection, schedule: Q01DX009 (ip), vehicle: saline); 98 % of control under setting [12]; 98 % of control (dose: 200.0 mg/kg/injection, schedule: Q01DX009 (ip), vehicle: saline); 102 % of control under setting [13]; 96 % of control (dose: 400.0 mg/kg/injection, schedule: Q01DX009 (ip), vehicle: saline); 100 % of control under setting [14].

`CCOC(=O)CSCc1cc(=O)[nH]c(=O)[nH]1`: the T/C under setting [12] was 96 % of control, the T/C under setting [13] is 98 % of control and the T/C under setting [14] was 102 % of control.
